Converted amounts (≈) assume the structure as drawn.
Assays:
Assay in all cases: Minimum inhibitory concentration (MIC), microtiter broth incubation
Format in all cases: cell-based
Details in all cases: 0.5x trypticase soy broth, 37° C., 18-24 hours; lowest concentration with no growth
E. coli = test system: E. coli
Experimental: (§1) Aminosterol compounds (1)-(11) were assayed in vitro against several microbial organisms to evaluate their spectrum of activity. Minimum inhibitory concentrations (MIC) for the bacteria and yeast were determined by incubating 0.9-1.1e5 colony-forming units per milliliter of log-phase microbes in 0.5×trypticase soy broth with increasing concentrations of sample in ninety-six well microtiter plates (commercially available from Corning of Corning, N.Y.) at 37° C. for eighteen to twenty-four hours. The minimum inhibitory concentration (MIC) is the lowest concentration of sample at which no growth was observed. Control incubation in the absence of bacteria served as a baseline value. Initial sample concentrations were two milligrams per milliliter in 250 mM sodium acetate, pH 6.6.

P. aeruginosa = test system: P. aeruginosa
Experimental: as §1

S. aureus = test system: S. aureus
Experimental: as §1

C. albicans = test system: C. albicans
Experimental: as §1

MIC E. coli (E. coli) | MIC P. aeruginosa (P. aeruginosa) | MIC S. aureus (S. aureus) | MIC C. albicans (C. albicans) | SMILES
125 µg/mL (≈ 204 µM) | 250 µg/mL (≈ 409 µM) | 16 µg/mL (≈ 26.1 µM) | – | CC(C)C(CCC(C)C1CCC2C3CCC4CC(NCCCNCCCCN)CCC4(C)C3CCC12C)OS(=O)(=O)O (stereo not drawn) [Aminosterol (11)]
256 µg/mL (≈ 385 µM) | 256 µg/mL (≈ 385 µM) | 8 to 16 µg/mL | 128 µg/mL (≈ 192 µM) | CC(CSCC(N)C(=O)O)C(=O)CCC(C)C1CCC2C3C(O)CC4CC(NCCCNCCCCN)CCC4(C)C3CCC12C (stereo not drawn) [Aminosterol (1)]
31 µg/mL (≈ 44.2 µM) | 31 µg/mL (≈ 44.2 µM) | 31 µg/mL (≈ 44.2 µM) | – | CC(COS(=O)(=O)O)C(O)CCC(C)C1CCC2C3C(O)CC4CC(NCCCNCCCCNCCCN)CCC4(C)C3CCC12C (stereo not drawn) [Aminosterol (9)]
16 µg/mL (≈ 24.8 µM) | 16 µg/mL (≈ 24.8 µM) | 8 to 16 µg/mL | 32 µg/mL (≈ 49.7 µM) | CC(C)C(CCC(C)C1CCC2C3C(O)CC4CC(NCCCNCCCCN)CCC4(C)C3CC(O)C12C)OS(=O)(=O)O (stereo not drawn) [Aminosterol (7)]
128 µg/mL (≈ 199 µM) | 32 µg/mL (≈ 49.7 µM) | 4 to 8 µg/mL | 16 µg/mL (≈ 24.8 µM) | CC(COS(=O)(=O)O)C(O)CCC(C)C1CCC2C3C(O)CC4CC(NCCCNCCCCN)CCC4(C)C3CCC12C (stereo not drawn) [Aminosterol (4)]
125 µg/mL (≈ 222 µM) | 250 µg/mL (≈ 443 µM) | 63 µg/mL (≈ 112 µM) | – | CC(CO)C(O)CCC(C)C1CCC2C3C(O)CC4CC(NCCCNCCCCN)CCC4(C)C3CCC12C (stereo not drawn) [Aminosterol (5)]
8 µg/mL (≈ 14.6 µM) | 32 µg/mL (≈ 58.4 µM) | 1 µg/mL (≈ 1.83 µM) | – | CC(CCCC(C)(C)O)C1CCC2C3C(O)CC4CC(NCCCNCCCCN)CCC4(C)C3CCC12C (stereo not drawn) [Aminosterol (8)]
>250 µg/mL | >250 µg/mL | 250 µg/mL (≈ 388 µM) | – | CC(CO)C(CCC(C)C1CCC2C3C(O)CC4CC(NCCCNCCCCN)CCC4(C)C3CCC12C)OS(=O)(=O)O (stereo not drawn) [Aminosterol (3)]
8 µg/mL (≈ 12.8 µM) | 31 µg/mL (≈ 49.5 µM) | 2 µg/mL (≈ 3.2 µM) | – | CC(C)C(CCC(C)C1CCC2C3C(=O)CC4CC(NCCCNCCCCN)CCC4(C)C3CCC12C)OS(=O)(=O)O (stereo not drawn) [Aminosterol (10)]
63 µg/mL (≈ 112 µM) | >250 µg/mL | 8 µg/mL (≈ 14.2 µM) | – | CC(CO)C(=O)CCC(C)C1CCC2C3C(O)CC4CC(NCCCNCCCCN)CCC4(C)C3CCC12C (stereo not drawn) [Aminosterol (6)]
125 µg/mL (≈ 222 µM) | >250 µg/mL | 31 µg/mL (≈ 55.2 µM) | – | CC(CCC(=O)C(C)(C)O)C1CCC2C3C(O)CC4CC(NCCCNCCCCN)CCC4(C)C3CCC12C (stereo not drawn) [Aminosterol (2)]
